According to US5874469A, “Fluoroalkyl hydrocarbons for administering water insoluble or unstable drugs” (Alcon Laboratories, Inc., priority 1996, dated 1999):
Values after ≈ are worked out from the molar mass of the structure shown.

Assays:
[1] = Solubility of betaxolol and dipivefrin, dissolved together, in 12205-1 (extraction into pH 3.0 phosphate buffer, reverse phase HPLC); settings: 12205-1 perfluoro ester, organic solvent or mixture
[2] = Solubility of dipivefrin in 12205-1 (excess drug stirred 30 minutes, filtered, extracted with pH 3.0 phosphate buffer); format: physicochemical; settings: 12205-1 perfluoro ester, organic solvent or mixture, vehicle 12205-1, excess dipivefrin alone, 0.2μ filter
Description: The solution was filtered through a 0.2μ filter and 100 μl of the sample was extracted with phosphate buffer (pH 3.0). The aqueous portion was analyzed for dipivefrin.

[3] = Storage stability (hydrolysis) of leflunomide in 12205-1, HPLC; format: physicochemical; settings: 60° C. in an oven, FIG. 2b
Description: The suspension was filtered and the filtrate was put on stability testing at 60° C. in an oven. 100 μL of sample was withdrawn as a function of time. The vehicle was evaporated and the residual sample was reconstituted in 1 mL of the mobile phase for leflunomide. The sample was analyzed by HPLC to determine the leflunomide content. […] The composition is therefore expected to be stable during storage.

physchem [4] = settings: perfluorooctanol, organic solvent or mixture
Description: (§1) 0.01847 g of leflunomide was added to 1 mL of perfluorooctanol ("PFO"). The suspension was sonicated for 15 minutes. The suspension was filtered through a 0.45μ filter and 100 μL of the filtrate was extracted with 1 mL of the mobile phase for leflunomide. The mobile phase consisted of 40:60 of acetonitrile: 0.01m NaH2 PO4 adjusted to pH 7.0. 10 μL of the extract was injected on to a C-18 reverse phase column. The sample was eluted with the mobile phase with a flow rate of 2 mL/minute and monitored at 254 nm.
(§2) 0.00207 g of leflunomide was added to 1 mL of perfluoro-2-methyl-oxahexanoic acid, methyl ester (12205-1). The suspension was filtered through a 0.45μ filter and 100 μL of the filtrate was extracted with 1 mL of the mobile phase of leflunomide. 10 μL of the extract was injected on to HPLC to determine the solubility of leflunomide.

[5] = Solubility of leflunomide in fluoroalkyl hydrocarbon vehicle (filtration, extraction into mobile phase, HPLC); settings: 12205-1 perfluoro ester, organic solvent or mixture
Description: as §1, §2

[6] = Storage stability (hydrolysis) of cabergoline in 12205-1, HPLC; format: physicochemical; settings: room temperature, 40° C. and 50° C., FIG. 1b
Description: 0.0056 g of cabergoline was weighed in a vial. […] The mixture was vortexed well and then sonicated for 30 minutes. The suspension was filtered through a 0.2μ acrodisc. The filtrate was split into 3 vials. The vials were stored at room temperature ("RT"), 40° C. and 50° C. The vial stored at room temperature was wrapped in aluminum foil. 100 μL of sample was withdrawn as a function of time. 1 mL of pH 3.0 phosphate buffer was added to the sample and vortexed. The supernatant was taken and analyzed by HPLC as described above.

physchem [7] = settings: organic solvent or mixture
Description: 0.00471 grams ("g") of cabergoline was added to 1 milliter ("mL") of perfluorooctanol (PFO). The suspension was sonicated for 15 minutes and then filtered through a 0.45μ filter. 100 microliters ("μL") of the filtrate was extracted with 1 mL of phosphate buffer (pH 3.0). 10 μL of the aqueous portion was analyzed for cabergoline by injecting in onto the HPLC. The mobile phase was made as follows:
5.2 mL of concentrated phosphoric acid, 6.0 mL of tetrabutyl ammonium hydroxide, and 6.612 g of dibasic ammonium phosphate were added to 1500 mL of deionized water. The mixture was stirred until it formed a clear solution. To the above solution 1800 mL of acetonitrile, 400 mL of tetrahydrofuran and sufficient water were added to make 4 liters of mobile phase. The mobile phase was pumped at 1.5 mL/minute through a cyano column. The eluent was monitored at 280 nanometers ("nm").
0.00126 g of cabergoline was added to 1 mL of perfluoro-2-methyl-oxahexanoic acid, methyl ester ("12205-1"). The suspension was sonicated for 15 minutes and then filtered through a 0.45μ filter. 100 μL of the filtrate was extracted with 1 mL of phosphate buffer (pH 3.0). 10 μL of the aqueous portion was analyzed for cabergoline by injecting it onto the HPLC.

physchem [8] = settings: 12205-1 perfluoro ester, organic solvent or mixture

In the case of `CNCC(O)c1ccc(OC(=O)C(C)(C)C)c(OC(=O)C(C)(C)C)c1` (stereo not drawn) [dipivefrin], the solubility [1] is reported as over 1000 µg/mL and the solubility at 0.5 h [2] is reported as over 1000 µg/mL.
With `Cc1oncc1C(=O)Nc1ccc(C(F)(F)F)cc1` [leflunomide] the “hydrolysis of leflunomide on storage” value [3] was “no hydrolysis”, the solubility (physchem [4]) was 2000 µg/mL (≈ 7400 µM) and the solubility [5] was 238 µg/mL (≈ 881 µM).
For `C=CCN1C[C@H](C(=O)N(CCCN(C)C)C(=O)NCC)C[C@@H]2c3cccc4[nH]cc(c34)C[C@H]21` [cabergoline], the “hydrolysis of cabergoline on storage” value [6] was “no hydrolysis”, the solubility (physchem [7]; 12205-1 perfluoro ester) was 1040 µg/mL (≈ 2290 µM) and the solubility (physchem [7]; perfluorooctanol) was 2700 µg/mL (≈ 5980 µM).
With `CC(C)NCC(O)COc1ccc(CCOCC2CC2)cc1` (stereo not drawn) [betaxolol] the solubility (physchem [8]) was over 1000 µg/mL.
